Results published in US20220324862A1, “PYRIDOPYRIMIDINONE COMPOUNDS” (Acerand Therapeutics (USA) Limited, priority 2021, published 2022).

The molecules below were run on cellular pERK in NCI-H1975 cells (EGFR/L858R-T790M) (assay: pERK Potency Assay). Conditions: Homo sapiens, 1 hour incubation, Western blot, read-out: IC50 value, cellular pERK level.
Type: cell-based
Text: The purpose of this assay is to measure the ability of test compounds to inhibit SOS1 function in cells. SOS1 activates RAS proteins by catalyzing the conversion of RAS-GDP to RAS-GTP in response to receptor tyrosine kinase activation. Activation of RAS induces a sequence of cellular signaling events that results in increased phosphorylation of ERK at Threonine 202 and Tyrosine 204 (pERK). The procedure described below measured the level of cellular pERK in response to test compounds in NCI-H1975 cells (EGFR/L858R-T790M).
NCI-H1975 cells were grown and maintained using media and procedures recommended by the ATCC. On the day prior to compound addition, cells were plated in 24-well cell culture plates (0.9 ml/well) and grown overnight in a 37° C., 5% CO2 incubator. Test compounds were prepared with 3-fold serial dilutions in DMSO, with a top concentration of 10 mM. On the day of the assay, 100 uL of each test compound diluted at 1:100 in media was added to each well of cell culture plate with final concentrations of the compound spanning 0.5 nM to 10 uM. After the compound was added, the cells were incubated for 1 hour at 37° C., 5% CO2. Following incubation, culture medium was removed, and the cells were washed once with phosphate buffered saline and lysed with lysis buffer (20 mM Tris-HCl, pH 7.5, 150 mM NaCl, 1 mM EDTA, 1 mM EGTA, 0.8% NP-40 plus 2× protease and phosphatase inhibitors). Cellular pERK level was determined using the Western blot analysis and quantified with Liqor software. Signal from Western blot was plotted and IC50 values were determined by fitting a 4-parameter sigmoidal concentration response model.

| Compound | IC50 [nM] |
| --- | --- |
| C#C[C@@H](Nc1ncnc2c1cc(C1(O)CCN(C(C)=O)C1)c(=O)n2C)c1cccc(C(F)F)c1F (stereo partly drawn) [Compound 43, 6-(1-acetyl-3-hydroxypyrrolidin-3-yl)-4-{[(1R)-1-[3-(difluoromethyl)-2-fluorophenyl]prop-2-yn-1-yl]amino}-8-methyl-7H,8H-pyrido[2,3-d]pyrimidin-7-one] | < 100 |
| C#C[C@@H](Nc1nc(C)nc2c1cc(C1(O)CCN(C(C)=O)CC1)c(=O)n2C)c1cccc(C(F)(F)F)c1C [Compound 54, 6-(1-acetyl-4-hydroxypiperidin-4-yl)-2,8-dimethyl-4-{[(1R)-1-[2-methyl-3-(trifluoromethyl)phenyl]prop-2-yn-1-yl]amino}-7H,8H-pyrido[2,3-d]pyrimidin-7-one] | < 100 |
| C#C[C@@H](Nc1nc(C)nc2c1cc(C1(OC)CCN(C(C)=O)CC1)c(=O)n2C)c1cccc(C(F)(F)F)c1C [Compound 55, 6-(1-acetyl-4-methoxypiperidin-4-yl)-2,8-dimethyl-4-{[(1R)-1-[2-methyl-3-(trifluoromethyl)phenyl]prop-2-yn-1-yl]amino}-7H,8H-pyrido[2,3-d]pyrimidin-7-one] | < 100 |
| C#C[C@@H](Nc1ncnc2c1cc(C1(NC(C)=O)CCN(C(C)=O)CC1)c(=O)n2C)c1cccc(C(F)(F)F)c1C [Compound 57, (R)-N-(1-acetyl-4-(8-methy-4-((1-(2-methyl-3-(trifluoromethyl)phenyl)prop-2-yn-1-yl)amino)-7-oxo-7,8-dihydropyrido[2,3-d]pyrimidin-6-yl)piperidin-4-yl)acetamide] | < 100 |
| C#C[C@@H](Nc1ncnc2c1cc(C1(O)CCN(C(C)=O)CC1)c(=O)n2C)c1cccc(C(F)F)c1F [Compound 46, 6-(1-acetyl-4-hydroxypiperidin-4-yl)-4-{[(1R)-1-[3-(difluoromethyl)-2-fluorophenyl]prop-2-yn-1-yl]amino}-8-methyl-7H,8H-pyrido[2,3-d]pyrimidin-7-one] | < 100 |
| C#C[C@@H](Nc1nc(C)nc2cc(=O)n(C3(C(F)F)CC3)cc12)c1cccc(C(F)(F)F)c1C [Compound 9, (R)-6-(1-(difluoromethyl)cyclopropyl)-2-methyl-4-((1-(2-methyl-3-(trifluoromethyl)phenyl)prop-2-yn-1-yl)amino)pyrido[4,3-d]pyrimidin-7(6H)-one] | 100 to 500 |
| C#C[C@@H](Nc1ncnc2c1cc(C1(OC)CCN(C(C)=O)C1)c(=O)n2C)c1cccc(C(F)F)c1F (stereo partly drawn) [Compound 49, 6-(1-acetyl-3-methoxypyrrolidin-3-yl)-4-{[(1R)-1-[3-(difluoromethyl)-2-fluorophenyl]prop-2-yn-1-yl]amino}-8-methyl-7H,8H-pyrido[2,3-d]pyrimidin-7-one] | < 100 |
| C#C[C@@H](Nc1nc(C)nc2cc(=O)n(C3CCOCC3)cc12)c1cccc(C(F)(F)F)c1C [Compound 4, (R)-2-methyl-4-((1-(2-methyl-3-(trifluoromethyl)phenyl)prop-2-yn-1-yl)amino)-6-(tetrahydro-2H-pyran-4-yl)pyrido[4,3-d]pyrimidin-7(6H)-one] | < 100 |
| C#C[C@@H](Nc1ncnc2c1cc(C1(NC(C)=O)CCOCC1)c(=O)n2C)c1cccc(C(F)(F)F)c1C [Compound 58, (R)-N-(4-(8-methy-4-((1-(2-methyl-3-(trifluoromethyl)phenyl)prop-2-yn-1-yl}amino)-7-oxo-7,8-dihydropyrido[2,3-d]pyrimidin-6-yl)tetrahydro-2H-pyran-4-yl)acetamide] | < 100 |
| C#C[C@@H](Nc1ncnc2c1cc(C1(OC)CCN(C(C)=O)CC1)c(=O)n2C)c1cccc(C(F)F)c1F [Compound 48, (R)-6-(1-acetyl-4-methoxypiperidin-4-yl)-4-((1-(3-(difluoromethyl)-2-fluorophenyl)prop-2-yn-1-yl)amino)-8-methylpyrido[2,3-d]pyrimidin-7(8H)-one] | < 100 |
| C#C[C@@H](Nc1nc(C)nc2c1cc(C1(F)CCN(C(C)=O)CC1)c(=O)n2C)c1cccc(C(F)(F)F)c1C [Compound 56, 6-(1-acetyl-4-fluoropiperidin-4-yl)-2,8-dimethyl-4-{[(1R)-1-[2-methyl-3-(trifluoromethyl)phenyl]prop-2-yn-1-yl]amino}-7H,8H-pyrido[2,3-d]pyrimidin-7-one] | < 100 |
